In data set [1] the target is hQC (Homo sapiens, UniProt Q16769). Briefly: Inhibitor assay for glutaminyl cyclase activity (fluorometric, H-Gln-βNA / H-Gln-AMC). The format is biochemical. The essentials: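 Ki values came from fitting progress curves to a competitive inhibition model; rapid screens used 4 mM inhibitor with substrate at KM. QC activity was read at 30 °C via auxiliary pyroglutamyl aminopeptidase releasing βNA (0.2 mM H-Gln-βNA, 0.2 M Tris pH 8.0, 20 mM EDTA) or AMC (0.05 M Tris pH 8.0, 5 mM EDTA).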
Sequence of hQC (Q16769 29-361): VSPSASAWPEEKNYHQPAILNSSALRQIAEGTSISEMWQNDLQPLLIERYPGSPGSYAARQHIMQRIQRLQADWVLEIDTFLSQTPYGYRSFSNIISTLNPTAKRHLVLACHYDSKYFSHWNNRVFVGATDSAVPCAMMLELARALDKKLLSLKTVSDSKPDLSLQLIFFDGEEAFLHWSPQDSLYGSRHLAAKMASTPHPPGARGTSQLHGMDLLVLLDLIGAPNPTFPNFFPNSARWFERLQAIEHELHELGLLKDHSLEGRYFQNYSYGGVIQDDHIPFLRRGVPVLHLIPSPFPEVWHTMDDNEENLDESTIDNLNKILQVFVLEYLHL

Setting [2] is: compound from preparative synthesis, purified, read-out: IC50 hQC.
[3] abbreviates: compound from preparative synthesis, purified.

Data on 17 molecules can be found in patent US8278345B2, “Inhibitors of glutaminyl cyclase” (Probiodrug AG, priority 2006, dated 2012).

The structures appear in SMILES notation. Read-outs that look alike come from different tables or passages of the source.

In the case of `O=C(C1=C(O)C(=O)N(c2ccc3[nH]cnc3c2)C1c1ccc2cccc(O)c2n1)C1CC1` (stereo not shown) [Compound 446, 1-(1H-Benzoimidazol-5-yl)-4-cyclopropanecarbonyl-3-hydroxy-5-(8-hydroxy-quinolin-2-yl)-1,5-dihydro-pyrrol-2-one], the melting point was 155 °C. In addition, the concentration for half-maximal inhibition (IC50) in data set [1] (setting [2]) came out at 1.35 nM. Further, in data set [1] (read-out: IC50), the IC50 stood at 4 nM.
Take `O=C1C(O)=C(c2ccccc2)C(c2cnc3ccccc3c2)N1c1ccc2[nH]cnc2c1` (stereo not shown) [Compound 420, 1-(1H-Benzoimidazol-5-yl)-3-hydroxy-4-phenyl-5-quinolin-3-yl-1,5-dihydro-pyrrol-2-one]: the melting point is 108 °C. The half-inhibitory concentration (IC50) in data set [1] (setting [2]) came out at 32 nM. Besides, the 50% inhibitory concentration (IC50) in data set [1] (read-out: IC50) was 4 nM.
For the molecule `O=C1C(O)=C(c2ccccc2)C(c2cc(F)cc(F)c2F)N1c1ccc2[nH]cnc2c1` (stereo not shown) [Compound 445, 1-(1H-Benzoimidazol-5-yl)-3-hydroxy-4-phenyl-5-(2,3,5-trifluoro-phenyl)-1,5-dihydro-pyrrol-2-one], the melting point is 150 °C. In addition, the IC50 in data set [1] (setting [2]) was determined as 2.6 nM. Moreover, in data set [1] (read-out: IC50), the 50% inhibitory concentration (IC50) worked out at 4 nM.
Regarding `CC1=C(O)C(=O)N(c2ccc3[nH]cnc3c2)C1c1cccc(Cl)c1Cl` (stereo not shown) [Compound 468, 1-(1H-benzo[d]imidazol-5-yl)-5-(2,3-dichlorophenyl)-3-hydroxy-4-methyl-1H-pyrrol-2(5H)-one], the melting point lay within 162 to 174 °C. Moreover, the Ki in data set [1] (setting [3]) is 14.6 nM. For the same molecule, in data set [1] (read-out: IC50), the IC50 is 75 nM.
The molecule `CC(=O)C1=C(O)C(=O)N(c2ccc3[nH]cnc3c2)C1c1cc(Br)ccc1F` (stereo not shown) [Compound 437, 4-Acetyl-1-(1H-benzoimidazol-5-yl)-5-(5-bromo-2-fluoro-phenyl)-3-hydroxy-1,5-dihydro-pyrrol-2-one] returned a melting point of 195 °C. For the same molecule, in data set [1] (setting [2]), the IC50 is 118 nM. In addition, the IC50 in data set [1] (read-out: IC50) is 4 nM.
For `CCCC(=O)C1=C(O)C(=O)N(c2ccc3[nH]cnc3c2)C1c1ccc(-c2ccccn2)cc1` (stereo not shown) [Compound 387, 1-(1H-Benzoimidazol-5-yl)-4-butyryl-3-hydroxy-5-(4-pyridin-2-yl-phenyl)-1,5-dihydro-pyrrol-2-one] the same measures were 294 °C, 1.2 nM and 4 nM.
For `CCCC(=O)C1=C(O)C(=O)N(c2ccc3[nH]cnc3c2)C1c1ccc2nonc2c1` (stereo not shown) [Compound 421, 1-(1H-Benzoimidazol-5-yl)-5-benzo[c][1,2,5]oxadiazol-5-yl-4-butyryl-3-hydroxy-1,5-dihydro-pyrrol-2-one] the same measures were 266 °C, 246 nM and 40 nM.
Take `CC1=C(O)C(=O)N(c2ccc3[nH]cnc3c2)C1c1cc(F)c(F)cc1F` (stereo not shown) [Compound 469, 1-(1H-benzo[d]imidazol-5-yl)-5-(2,4,5-trifluorophenyl)-3-hydroxy-4-methyl-1H-pyrrol-2(5H)-one]: the melting point was 184 °C. In addition, the Ki in data set [1] (setting [3]) amounted to 53.6 nM. In addition, in data set [1] (read-out: IC50), the IC50 was 233 nM.
In the case of `O=C(C1=C(O)C(=O)N(c2ccc3[nH]cnc3c2)C1c1ccc2nsnc2c1)C1CC1` (stereo not shown) [Compound 287, 1-(1H-Benzoimidazol-5-yl)-5-benzo[c][1,2,5]thiadiazol-5-yl-4-cyclopropanecarbonyl-3-hydroxy-1,5-dihydro-pyrrol-2-one], the melting point was 270 °C (dec.). For the same molecule, in data set [1] (setting [2]), the IC50 turned out to be 0.7 nM. For the same molecule, the half-maximal inhibitory concentration (IC50) in data set [1] (read-out: IC50) was 4 nM.
For `CC(=O)C1=C(O)C(=O)N(c2ccc3[nH]cnc3c2)C1c1ccc2cccc(O)c2n1` (stereo not shown) [Compound 277, 4-Acetyl-1-(1H-benzoimidazol-5-yl)-3-hydroxy-5-(8-hydroxy-quinolin-2-yl)-1,5-dihydro-pyrrol-2-one] the same measures were 174 °C, 5.8 nM and 4 nM.
For `CC(=O)C1=C(O)C(=O)N(c2ccc3[nH]cnc3c2)C1c1cccc(F)c1F` (stereo not shown) [Compound 350, 4-Acetyl-1-(1H-benzoimidazol-5-yl)-5-(2,3-difluoro-phenyl)-3-hydroxy-1,5-dihydro-pyrrol-2-one] the same measures were 135 °C, 30.3 nM and 4 nM.
For `O=C(C1=C(O)C(=O)N(c2ccc3[nH]cnc3c2)C1c1ccc2nonc2c1)C1CC1` (stereo not shown) [Compound 440, 1-(1H-Benzoimidazol-5-yl)-5-benzo[c][1,2,5]oxadiazol-5-yl-4-cyclopropanecarbonyl-3-hydroxy-1,5-dihydro-pyrrol-2-one] the same measures were 170 °C, 11.4 nM and 4 nM.
Turning to `CC(=O)C1=C(O)C(=O)N(c2ccc3[nH]cnc3c2)C1c1ccc2nonc2c1` (stereo not shown) [Compound 403, 4-Acetyl-1-(1H-benzoimidazol-5-yl)-5-benzo[c][1,2,5]oxadiazol-5-yl-3-hydroxy-1,5-dihydro-pyrrol-2-one], the melting point turned out to be 175 °C. Further, the 50% inhibitory concentration (IC50) in data set [1] (setting [2]) came to 28.3 nM. Further, the IC50 in data set [1] (read-out: IC50) is 4 nM.
Turning to `O=C1C(O)=C(c2c[nH]c3ccccc23)C(c2c[nH]c3ccccc23)N1CCCn1ccnc1` (stereo not shown) [Compound 132, 3-Hydroxy-1-(3-imidazol-1-yl-propyl)-4,5-bis-(1H-indol-3-yl)-1,5-dihydro-pyrrol-2-one], the concentration for half-maximal inhibition (IC50) in data set [1] (read-out: IC50) stood at 400 nM.
Regarding `O=C1C(O)=C(c2ccccc2)C(c2ccccn2)N1CCCn1ccnc1` (stereo not shown) [Compound 101, 3-Hydroxy-1-(3-imidazol-1-yl-propyl)-4-phenyl-5-pyridin-2-yl-1,5-dihydro-pyrrol-2-one], the IC50 in data set [1] (read-out: IC50) stood at 400 nM.
Still for that read-out and setting: next, `CCC1C(c2ccccc2)=C(O)C(=O)N1CCCn1ccnc1` (stereo not shown) [Compound 108, 5-Ethyl-3-hydroxy-1-(3-imidazol-1-yl-propyl)-4-phenyl-1,5-dihydro-pyrrol-2-one]: 400 nM; `O=C(C1=C(O)C(=O)N(c2ccc3[nH]cnc3c2)C1c1ccc(CO)o1)c1cccs1` (stereo not shown) [Compound 369, 1-(1H-Benzoimidazol-5-yl)-3-hydroxy-5-(5-hydroxymethyl-furan-2-yl)-4-(thiophene-2-carbonyl)-1,5-dihydro-pyrrol-2-one]: 1570 nM.
